Laboratory results: article PMC7731310, “Pogostemon cablin Triggered ROS-Induced DNA Damage to Arrest Cell Cycle Progression and Induce Apoptosis on Human Hepatocellular Carcinoma In Vitro and In Vivo” (Molecules, 2020)
Converted amounts (≈) assume the structure as drawn.

Assays:
SVEC = assay: MTT cell viability, SVEC normal cells; type: cell-based; settings: Mus musculus, 48 hr, mean ± SD
Procedure: (§1) HCC cells (5 × 10^3/100 μL), SVEC, MDCK (1 × 10^4/100 μL), and BNL CL.2 cells (4 × 10^4/100 μL) were seeded in a 96-well plate. After incubating overnight at 37 ℃, the cells were treated with serially diluted drug concentrations for 24, 48, and 72 h. The cell viability was measured using an MTT assay.

HepG2 cells = assay: Regrowth assay (crystal violet), HepG2; settings: PPa extract 15 μg/mL, sorafenib 0.2 μg/mL, 4 and 8 days
Procedure: (§2) After that, both cell lines were analyzed for flow cytometry. […] During treatments, fresh drugs were changed every two days and harvested the data at 4 and 8 days. After treatment, cells were stained with 0.1% crystal violet and absorbance was measured at 550 nm after dissolving in 0.5% acetic acid. For detection of indicated protein expressions, cells (2 × 10^6) seeded at 10 cm dishes. […] Cell lysates were collected for western blot.

Mahlavu = assay: MTT cell viability, Mahlavu; type: cell-based, Human; settings: for IC50: Homo sapiens, Mahlavu, 48 hr, mean ± SD; for Selectivity index (SI) BNL CL.2/Mahlavu / Selectivity index (SI) MDCK/Mahlavu / Selectivity index (SI) SVEC/Mahlavu: IC50 of normal cells/IC50 of HCC cells
Procedure: as §1

MDCK = assay: MTT cell viability, MDCK normal cells; type: cell-based, Canine; settings: Canis lupus familiaris, 48 hr, mean ± SD
Procedure: as §1

Mahlavu cells = assay: Regrowth assay (crystal violet), Mahlavu; settings: PPa extract 15 μg/mL, sorafenib 0.2 μg/mL, 4 and 8 days
Procedure: as §2

Huh7 = assay: MTT cell viability, Huh7; type: cell-based, Human; settings: for IC50: Homo sapiens, Huh-7, Huh7, 48 hr, mean ± SD; for Selectivity index (SI) BNL CL.2/Huh7 / Selectivity index (SI) MDCK/Huh7 / Selectivity index (SI) SVEC/Huh7: IC50 of normal cells/IC50 of HCC cells
Procedure: as §1

BNL CL.2 = assay: MTT cell viability, BNL CL.2 normal liver cells; type: cell-based; settings: Mus musculus, 48 hr, mean ± SD
Procedure: as §1

J5 = assay: MTT cell viability, J5; type: cell-based, Human; settings: for IC50: Homo sapiens, J5, 48 hr, mean ± SD; for Selectivity index (SI) BNL CL.2/J5 / Selectivity index (SI) MDCK/J5 / Selectivity index (SI) SVEC/J5: IC50 of normal cells/IC50 of HCC cells
Procedure: as §1

HepG2 = assay: MTT cell viability, HepG2; type: cell-based, Human; settings: for IC50: Homo sapiens, HepG2, 48 hr, mean ± SD; for Selectivity index (SI) BNL CL.2/HepG2 / Selectivity index (SI) MDCK/HepG2 / Selectivity index (SI) SVEC/HepG: IC50 of normal cells/IC50 of HCC cells
Procedure: as §1

Structure (SMILES)	IC50 (SVEC) [µg/mL]	IC50 (Mahlavu) [µg/mL]	Selectivity index (SI) BNL CL.2/Mahlavu (Mahlavu)	Selectivity index (SI) MDCK/Mahlavu (Mahlavu)	Selectivity index (SI) SVEC/Mahlavu (Mahlavu)	IC50 (MDCK) [µg/mL]	IC50 (Huh7) [µg/mL]	Selectivity index (SI) BNL CL.2/Huh7 (Huh7)	Selectivity index (SI) MDCK/Huh7 (Huh7)	Selectivity index (SI) SVEC/Huh7 (Huh7)	IC50 (BNL CL.2) [µg/mL]	IC50 (J5) [µg/mL]	Selectivity index (SI) BNL CL.2/J5 (J5)	Selectivity index (SI) MDCK/J5 (J5)	Selectivity index (SI) SVEC/J5 (J5)	IC50 (HepG2) [µg/mL]	Selectivity index (SI) BNL CL.2/HepG2 (HepG2)	Selectivity index (SI) MDCK/HepG2 (HepG2)	Selectivity index (SI) SVEC/HepG (HepG2)	also measured
CNC(=O)c1cc(Oc2ccc(NC(=O)Nc3ccc(Cl)c(C(F)(F)F)c3)cc2)ccn1 [SOR, sorafenib]	8.55 ± 2.73 (≈ 18.4 µM)	6.07 ± 1.06 (≈ 13.1 µM)	1.8	1.1	1.4	6.95 ± 1.45 (≈ 15 µM)	1.77 ± 4.31 (≈ 3.81 µM)	6.1	3.9	4.8	10.8 ± 5.17 (≈ 23.1 µM)	2.39 ± 1.91 (≈ 5.14 µM)	4.5	2.9	3.6	3.52 ± 1.97 (≈ 7.57 µM)	3.1	2.0	2.4	inhibition of cell regrowth (HepG2 cells): no inhibitory effect; inhibition of cell regrowth (Mahlavu cells): no inhibitory effect
O=c1[nH]cc(F)c(=O)[nH]1 [5-FU, 5-Fluorouracil]	1.69 ± 2.8 (≈ 13 µM)	15 ± 3.71 (≈ 115 µM)				8.74 ± 0.53 (≈ 67.2 µM)	4.88 ± 3.37 (≈ 37.5 µM)				> 20	18.8 ± 0.91 (≈ 144 µM)				2.09 ± 1.63 (≈ 16.1 µM)				
COc1cc([C@@H]2c3cc4c(cc3[C@@H](O[C@@H]3O[C@@H]5CO[C@@H](C)O[C@H]5[C@H](O)[C@H]3O)[C@H]3COC(=O)[C@H]23)OCO4)cc(OC)c1O [VP-16, Etoposide]	1.85 ± 0.49 (≈ 3.14 µM)	4.54 ± 2.17 (≈ 7.71 µM)	1.4	0.8	0.4	3.38 ± 0.43 (≈ 5.74 µM)	5.11 ± 2.08 (≈ 8.68 µM)	1.3	0.7	0.4	6.43 ± 3.02 (≈ 10.9 µM)	3.01 ± 2.75 (≈ 5.11 µM)	2.1	1.1	0.6	4.73 ± 3.57 (≈ 8.04 µM)	1.4	0.7	0.4	
